Data on 49 molecules can be found in patent publication US20230079819A1, “COMPOUNDS AND USES THEREOF” (Foghorn Therapeutics Inc., priority 2019, published 2023).

In assay [1] the target is T1, BRG-1 (Homo sapiens, UniProt P51532).
T1 construct: made in house; host or cells: High Five insect cells
Put plainly: ATPase catalytic activity of BRG-1, ADP-Glo in vitro biochemical assay. The settings on record: ATPase catalytic activity, 30 nM BRG-1, 400 μM ATP, read-out: BRG1 IP50 (μM)*.

The target of assay [2] is T2, BRM (Homo sapiens, UniProt P51531).
T2 construct: made in house; host or cells: High Five insect cells
Put plainly: ATPase catalytic activity of BRM, ADP-Glo in vitro biochemical assay. The settings on record: ATPase catalytic activity, 30 nM BRM, 400 μM ATP, read-out: BRM IP50 (μM)*.

T1 sequence (P51532 whole entry): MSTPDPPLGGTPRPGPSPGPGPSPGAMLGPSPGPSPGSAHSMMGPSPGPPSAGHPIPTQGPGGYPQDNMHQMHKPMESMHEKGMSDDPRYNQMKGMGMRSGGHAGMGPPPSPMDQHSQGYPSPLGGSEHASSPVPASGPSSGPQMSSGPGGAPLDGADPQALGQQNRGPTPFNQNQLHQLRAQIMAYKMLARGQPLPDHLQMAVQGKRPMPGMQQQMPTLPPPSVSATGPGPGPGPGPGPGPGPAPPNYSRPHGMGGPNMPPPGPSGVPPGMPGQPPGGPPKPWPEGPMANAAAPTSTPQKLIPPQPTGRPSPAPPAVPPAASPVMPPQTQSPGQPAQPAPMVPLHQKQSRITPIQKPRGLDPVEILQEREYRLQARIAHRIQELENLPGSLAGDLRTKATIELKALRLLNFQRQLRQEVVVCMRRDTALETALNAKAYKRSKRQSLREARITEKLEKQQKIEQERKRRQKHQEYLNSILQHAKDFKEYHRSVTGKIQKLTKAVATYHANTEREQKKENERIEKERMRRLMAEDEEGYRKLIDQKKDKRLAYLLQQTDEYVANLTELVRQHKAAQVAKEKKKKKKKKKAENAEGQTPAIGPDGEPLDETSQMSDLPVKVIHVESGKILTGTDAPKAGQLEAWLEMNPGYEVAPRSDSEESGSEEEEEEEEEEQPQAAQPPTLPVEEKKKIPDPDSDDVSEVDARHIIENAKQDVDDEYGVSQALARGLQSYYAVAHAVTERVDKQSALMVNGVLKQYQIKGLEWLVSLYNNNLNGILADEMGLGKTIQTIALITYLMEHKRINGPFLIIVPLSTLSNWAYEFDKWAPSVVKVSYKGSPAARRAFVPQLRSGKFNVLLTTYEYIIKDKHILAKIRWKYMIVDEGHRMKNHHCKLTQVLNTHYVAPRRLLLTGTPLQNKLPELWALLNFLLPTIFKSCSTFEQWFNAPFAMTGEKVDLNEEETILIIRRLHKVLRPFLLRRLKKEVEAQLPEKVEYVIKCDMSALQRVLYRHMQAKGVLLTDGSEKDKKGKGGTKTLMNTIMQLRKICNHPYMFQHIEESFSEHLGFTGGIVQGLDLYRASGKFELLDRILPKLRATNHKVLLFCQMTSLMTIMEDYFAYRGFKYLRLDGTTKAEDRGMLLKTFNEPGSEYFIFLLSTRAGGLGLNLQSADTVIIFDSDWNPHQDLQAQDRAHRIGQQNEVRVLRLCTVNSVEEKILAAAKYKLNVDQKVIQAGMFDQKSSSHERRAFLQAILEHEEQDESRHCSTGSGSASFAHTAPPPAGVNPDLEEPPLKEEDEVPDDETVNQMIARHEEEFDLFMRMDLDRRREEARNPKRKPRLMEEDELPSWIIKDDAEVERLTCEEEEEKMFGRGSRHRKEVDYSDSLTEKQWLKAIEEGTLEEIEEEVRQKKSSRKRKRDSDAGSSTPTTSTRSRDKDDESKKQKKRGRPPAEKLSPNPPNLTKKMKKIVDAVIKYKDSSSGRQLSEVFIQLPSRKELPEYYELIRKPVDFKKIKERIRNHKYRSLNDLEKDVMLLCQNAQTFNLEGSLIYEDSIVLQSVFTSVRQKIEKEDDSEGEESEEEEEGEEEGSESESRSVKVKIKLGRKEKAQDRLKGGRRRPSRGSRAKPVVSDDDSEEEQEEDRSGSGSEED
T2 sequence (P51531 whole entry): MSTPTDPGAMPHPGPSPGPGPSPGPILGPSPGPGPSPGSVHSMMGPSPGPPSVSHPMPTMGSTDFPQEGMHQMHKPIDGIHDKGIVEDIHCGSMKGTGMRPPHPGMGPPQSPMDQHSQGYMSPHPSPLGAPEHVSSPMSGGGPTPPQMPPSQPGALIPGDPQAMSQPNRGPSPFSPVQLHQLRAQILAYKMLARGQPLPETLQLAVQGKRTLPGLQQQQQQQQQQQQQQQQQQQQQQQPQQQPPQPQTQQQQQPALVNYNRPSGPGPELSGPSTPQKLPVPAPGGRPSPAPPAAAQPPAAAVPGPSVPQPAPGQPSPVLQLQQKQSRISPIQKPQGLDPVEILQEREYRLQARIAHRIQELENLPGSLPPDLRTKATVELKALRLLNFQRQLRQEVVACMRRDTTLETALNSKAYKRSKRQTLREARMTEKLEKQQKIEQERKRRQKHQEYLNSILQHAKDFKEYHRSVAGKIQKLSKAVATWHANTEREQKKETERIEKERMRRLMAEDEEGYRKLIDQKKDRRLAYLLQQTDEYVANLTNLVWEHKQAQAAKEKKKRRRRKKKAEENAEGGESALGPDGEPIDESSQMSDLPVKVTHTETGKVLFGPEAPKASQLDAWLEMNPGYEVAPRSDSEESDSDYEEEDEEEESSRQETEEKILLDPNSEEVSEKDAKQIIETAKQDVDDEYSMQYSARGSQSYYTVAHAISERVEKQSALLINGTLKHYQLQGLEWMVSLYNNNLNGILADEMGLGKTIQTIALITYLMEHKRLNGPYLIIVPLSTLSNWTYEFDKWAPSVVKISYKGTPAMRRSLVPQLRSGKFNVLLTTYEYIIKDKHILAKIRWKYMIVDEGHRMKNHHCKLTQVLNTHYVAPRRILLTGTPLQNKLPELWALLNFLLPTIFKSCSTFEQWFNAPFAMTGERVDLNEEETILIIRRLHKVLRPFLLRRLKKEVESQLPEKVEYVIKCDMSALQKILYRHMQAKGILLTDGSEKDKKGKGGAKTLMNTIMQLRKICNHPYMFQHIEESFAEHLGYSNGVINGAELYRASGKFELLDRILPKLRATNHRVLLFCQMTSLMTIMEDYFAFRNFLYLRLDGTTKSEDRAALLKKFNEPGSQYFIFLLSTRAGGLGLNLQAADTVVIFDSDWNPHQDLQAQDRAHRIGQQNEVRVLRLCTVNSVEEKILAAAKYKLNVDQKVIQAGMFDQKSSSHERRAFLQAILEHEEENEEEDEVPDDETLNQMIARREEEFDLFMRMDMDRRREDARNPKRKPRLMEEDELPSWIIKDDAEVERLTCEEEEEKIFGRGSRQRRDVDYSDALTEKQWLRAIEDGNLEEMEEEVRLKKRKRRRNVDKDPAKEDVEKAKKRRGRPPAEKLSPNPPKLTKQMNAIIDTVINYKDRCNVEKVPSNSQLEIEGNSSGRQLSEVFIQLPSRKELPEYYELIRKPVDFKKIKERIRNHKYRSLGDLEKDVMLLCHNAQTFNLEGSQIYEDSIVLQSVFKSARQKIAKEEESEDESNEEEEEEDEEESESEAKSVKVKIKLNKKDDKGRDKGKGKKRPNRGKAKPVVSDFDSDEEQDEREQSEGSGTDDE

Turning to `CCS(=O)(=O)n1ccc(C(=O)NCC(=O)Nc2nc(-c3cccc(N4CCC(O)CC4)c3)cs2)c1` [Compound 209], the IC50 in assay [1] and in assay [2] was > 0.01 µM in each case.

In the case of `CS(=O)(=O)n1ccc(C(=O)NCC(=O)Nc2nc(-c3cccc(N4CCCOCC4)c3)cs2)c1` [Compound 210], the IC50 in assay [1] and in assay [2] was > 0.01 µM in each case.

Turning to `CS(=O)(=O)n1ccc(C(=O)NCC(=O)Nc2nc(-c3cccc(N4CCC[C@@H](C#N)C4)c3)cs2)c1` [Compound 211], the IC50 in assay [1] and in assay [2] was > 0.01 µM each time.

In the case of `CS(=O)(=O)n1ccc(C(=O)NCC(=O)Nc2nc(-c3cccc(N4CC(O)C4)c3)cs2)c1` [Compound 212], the IC50 in assay [1] and in assay [2] was < 0.01 µM in each case.

For the molecule `CS(=O)(=O)n1ccc(C(=O)NCC(=O)Nc2nc(-c3cccc(N4CCC[C@@H](F)C4)c3)cs2)c1` [Compound 213], the IC50 in assay [1] and in assay [2] was > 0.01 µM each time.

With `CS(=O)(=O)n1ccc(C(=O)NCC(=O)Nc2nc(-c3cccc(N4CC5CC4CO5)c3)cs2)c1` (centres unmarked) [Compound 214], the IC50 in assay [1] and in assay [2] was > 0.1 µM in each case.

Regarding `CS(=O)(=O)n1ccc(C(=O)NCC(=O)Nc2nc(-c3cccc(N4CCC[C@@H](O)C4)c3)cs2)c1` [Compound 215], the IC50 in assay [1] and in assay [2] was > 0.01 µM in each case.

Consider `CS(=O)(=O)n1ccc(C(=O)NCC(=O)Nc2nc(-c3cccc(N4CCC(C#N)CC4)c3)cs2)c1` [Compound 216], for which the IC50 in assay [1] and in assay [2] was > 0.01 µM throughout.

For the molecule `CC(C)(C(=O)O)n1ccc(-c2cccc(-c3csc(NC(=O)CNC(=O)c4ccn(S(C)(=O)=O)c4)n3)c2)n1` [Compound 217, 2-methyl-2-[3-[3-[2-[[2-[(1-methylsulfonylpyrrole-3-carbonyl)amino]acetyl]amino]thiazol-4-yl]phenyl]pyrazol-1-yl]propanoic acid], the IC50 in assay [1] and in assay [2] was > 0.01 µM in each case.

For the molecule `CS(=O)(=O)n1ccc(C(=O)NCC(=O)Nc2nc(-c3cccc(-c4ccn(CC(=O)O)n4)c3)cs2)c1` [Compound 218], the IC50 in assay [1] and in assay [2] was > 0.01 µM throughout.

Turning to `C[C@H]1CN(c2cccc(-c3csc(NC(=O)CNC(=O)c4ccn(S(C)(=O)=O)c4)n3)c2)CC[C@H]1O` [Compound 219], the IC50 in assay [1] and in assay [2] was > 0.01 µM throughout.

Regarding `CN1CCN(c2cccc(-c3csc(NC(=O)CNC(=O)c4ccn(S(C)(=O)=O)c4)n3)c2)CC1=O` [Compound 220], the IC50 in assay [1] and in assay [2] was > 0.01 µM each time.

Turning to `C[C@@H]1CN(c2cccc(-c3csc(NC(=O)CNC(=O)c4ccn(S(=O)(=O)N(C)C)c4)n3)c2)C[C@H](C)O1` [Compound 221], the IC50 in assay [1] and in assay [2] was > 0.01 µM in each case.

Take `COC1CC2(C1)CN(c1cccc(-c3csc(NC(=O)CNC(=O)c4ccn(S(C)(=O)=O)c4)n3)c1)C2` [Compound 222]: the IC50 in assay [1] was > 0.1 µM; in assay [2], > 0.01 µM.

`CS(=O)(=O)n1ccc(C(=O)NCC(=O)Nc2nc(-c3cccc(N4C[C@H]5COC[C@H]5C4)c3)cs2)c1` [Compound 223]: the IC50 in assay [1] and in assay [2] was > 0.01 µM each time.

Regarding `CO[C@H]1CCN(c2cccc(-c3csc(NC(=O)CNC(=O)c4ccn(S(C)(=O)=O)c4)n3)c2)C1` [Compound 224], the IC50 in assay [1] and in assay [2] was > 0.01 µM each time.

For the molecule `CS(=O)(=O)n1ccc(C(=O)NCC(=O)Nc2nc(-c3cccc(N4CCC(F)(F)C4)c3)cs2)c1` [Compound 225], the IC50 in assay [1] and in assay [2] was > 0.01 µM each time.

Regarding `CO[C@@H]1CCN(c2cccc(-c3csc(NC(=O)CNC(=O)c4ccn(S(C)(=O)=O)c4)n3)c2)C1` [Compound 226], the figures for the IC50 in assay [1] and in assay [2] were > 0.01 µM and < 0.01 µM, respectively.

For the molecule `CS(=O)(=O)n1ccc(C(=O)NCC(=O)Nc2nc(-c3cccc(N4CC(N5CCOCC5)C4)c3)cs2)c1` [Compound 227], the IC50 in assay [1] and in assay [2] was > 0.01 µM in each case.

As to `CCS(=O)(=O)n1ccc(C(=O)NCC(=O)Nc2nc(-c3cccc(N4C[C@@H](C)O[C@@H](C)C4)c3)cs2)c1` [Compound 228], the IC50 in assay [1] was > 0.01 µM; in assay [2] it was < 0.01 µM.

`C[C@@H]1CN(c2cccc(-c3csc(NC(=O)CNC(=O)c4ccn(C5COC5)c4)n3)c2)C[C@H](C)O1` [Compound 229]: the IC50 in assay [1] and in assay [2] was > 0.1 µM in each case.

Turning to `CS(=O)(=O)n1ccc(C(=O)NCC(=O)Nc2nc(-c3cccc(N4CC5CC(C4)O5)c3)cs2)c1` [Compound 230], the IC50 in assay [1] is > 0.1 µM; in assay [2], > 0.01 µM.

As to `CS(=O)(=O)n1ccc(C(=O)NCC(=O)Nc2nc(-c3cccc(N4CCCC4)c3)cs2)c1` [Compound 231], the IC50 in assay [1] and in assay [2] was > 0.01 µM each time.

Regarding `C[C@H]1CCCN(c2cccc(-c3csc(NC(=O)CNC(=O)c4ccn(S(C)(=O)=O)c4)n3)c2)C1` [Compound 232], the IC50 in assay [1] and in assay [2] was > 0.01 µM each time.

With `CS(=O)(=O)n1ccc(C(=O)NCC(=O)Nc2nc(-c3cccc(N4CCC4)c3)cs2)c1` [Compound 233], the IC50 is > 0.01 µM in assay [1] and < 0.01 µM in assay [2].

Regarding `Cn1ncc2c1CCN(c1cccc(-c3csc(NC(=O)CNC(=O)c4ccn(S(C)(=O)=O)c4)n3)c1)C2` [Compound 234], the IC50 in assay [1] and in assay [2] was > 0.01 µM each time.

As to `C[C@@H]1CN(c2cccc(-c3csc(NC(=O)CNC(=O)c4ccn(C5(C)COC5)c4)n3)c2)C[C@H](C)O1` [Compound 235], the IC50 in assay [1] and in assay [2] was > 0.01 µM in each case.

In the case of `CC[C@H]1CN(c2cccc(-c3csc(NC(=O)CNC(=O)c4ccn(S(C)(=O)=O)c4)n3)c2)CCO1` [Compound 236], the IC50 in assay [1] and in assay [2] was > 0.01 µM throughout.

Turning to `CC[C@@H]1CN(c2cccc(-c3csc(NC(=O)CNC(=O)c4ccn(S(C)(=O)=O)c4)n3)c2)CCO1` [Compound 237], the IC50 in assay [1] and in assay [2] was > 0.01 µM each time.

For `C[C@@H]1CCCN(c2cccc(-c3csc(NC(=O)CNC(=O)c4ccn(S(C)(=O)=O)c4)n3)c2)C1` [Compound 238], the IC50 in assay [1] and in assay [2] was > 0.01 µM each time.

As to `C[C@@H]1COCCN1c1cccc(-c2csc(NC(=O)CNC(=O)c3ccn(S(C)(=O)=O)c3)n2)c1` [Compound 239], the IC50 in assay [1] and in assay [2] was > 0.01 µM each time.

In the case of `CS(=O)(=O)n1ccc(C(=O)NCC(=O)Nc2nc(-c3cccc(N4CCC(F)(F)CC4)c3)cs2)c1` [Compound 241], the IC50 is > 0.1 µM in assay [1] and > 0.01 µM in assay [2].

`CS(=O)(=O)n1ccc(C(=O)NCC(=O)Nc2nc(-c3cccc(N4CCCCC4)c3)cs2)c1` [Compound 242]: the IC50 in assay [1] and in assay [2] was > 0.01 µM each time.

In the case of `CC1(O)CCN(c2cccc(-c3csc(NC(=O)CNC(=O)c4ccn(S(C)(=O)=O)c4)n3)c2)CC1` [Compound 243], the values for the IC50 in assay [1] and in assay [2] were > 0.1 µM and > 0.01 µM, respectively.

Regarding `COC[C@@H]1CCCN(c2cccc(-c3csc(NC(=O)CNC(=O)c4ccn(S(C)(=O)=O)c4)n3)c2)C1` [Compound 244], the IC50 in assay [1] and in assay [2] was > 0.01 µM throughout.

Turning to `CC(C)(C)n1ccc(C(=O)NCC(=O)Nc2nc(-c3cccc(N4CC5(COC5)C4)c3)cs2)c1` [Compound 245], the IC50 in assay [1] and in assay [2] was > 0.01 µM in each case.

Turning to `COC1CN(c2cccc(-c3csc(NC(=O)CNC(=O)c4ccn(S(C)(=O)=O)c4)n3)c2)C1` [Compound 246], the IC50 in assay [1] was > 0.01 µM; in assay [2], < 0.01 µM.

For `Cc1cccc(-c2csc(NC(=O)CNC(=O)c3ccn(S(C)(=O)=O)c3)n2)c1` [Compound 247], the IC50 in assay [1] and in assay [2] was > 0.01 µM each time.

For the molecule `CS(=O)(=O)n1ccc(C(=O)NCC(=O)Nc2nc(-c3cccc(C(F)F)c3)cs2)c1` [Compound 248], the IC50 in assay [1] and in assay [2] was > 0.01 µM in each case.

Turning to `CC1Cc2ccc(-c3csc(NC(=O)CNC(=O)c4ccn(S(C)(=O)=O)c4)n3)cc2O1` (centres unmarked) [Compound 249], the IC50 in assay [1] and in assay [2] was > 0.01 µM throughout.

Turning to `COCCN1CCc2ccc(-c3csc(NC(=O)CNC(=O)c4ccn(S(C)(=O)=O)c4)n3)cc21` [Compound 250], the IC50 in assay [1] and in assay [2] was > 0.01 µM throughout.

Regarding `CO[C@H]1C[C@H](Oc2cccc(-c3csc(NC(=O)CNC(=O)c4ccn(S(C)(=O)=O)c4)n3)c2)C1` [Compound 252], the IC50 in assay [1] and in assay [2] was > 0.01 µM in each case.

`CS(=O)(=O)n1ccc(C(=O)NCC(=O)Nc2nc(-c3cc(F)c4ccoc4c3)cs2)c1` [Compound 253]: the IC50 in assay [1] and in assay [2] was > 0.01 µM each time.

Regarding `CO[C@H]1C[C@@H](Oc2cccc(-c3csc(NC(=O)CNC(=O)c4ccn(S(C)(=O)=O)c4)n3)c2)C1` [Compound 254], the IC50 in assay [1] and in assay [2] was > 0.01 µM each time.

As for `CS(=O)(=O)n1ccc(C(=O)NCC(=O)Nc2nc(-c3cc(F)c4c(c3)OCC4)cs2)c1` [Compound 255], the IC50 in assay [1] and in assay [2] was < 0.01 µM in each case.

Take `CS(=O)(=O)n1ccc(C(=O)NCC(=O)Nc2nc(-c3cccc(C4(F)CCC4)c3)cs2)c1` [Compound 256]: the IC50 in assay [1] and in assay [2] was > 0.01 µM in each case.

On to `CO[C@]1(C)CCCN(c2cccc(-c3csc(NC(=O)CNC(=O)c4ccn(S(C)(=O)=O)c4)n3)c2)C1` [Compound 257], for which the IC50 in assay [1] and in assay [2] was > 0.01 µM in each case.

For `CO[C@@]1(C)CCCN(c2cccc(-c3csc(NC(=O)CNC(=O)c4ccn(S(C)(=O)=O)c4)n3)c2)C1` [Compound 258], the IC50 in assay [1] and in assay [2] was > 0.01 µM throughout.

With `CN1CCOCc2ccc(-c3csc(NC(=O)CNC(=O)c4ccn(S(C)(=O)=O)c4)n3)cc21` [Compound 259], the IC50 in assay [1] and in assay [2] was > 0.01 µM throughout.
